ChEMBL document CHEMBL1201862, “PubChem BioAssay data set” (2004)
Activity calls are given as the source filed them.

How the values were obtained:
[1] = target: T1, Replicative DNA helicase DnaB (Mycobacterium tuberculosis, UniProt P9WMR3); experiment: DnaB intein splicing inhibitors, dose response, biochemical, cell-free fluorescence (AID 449749); format: functional
T1 sequence (P9WMR3 whole entry): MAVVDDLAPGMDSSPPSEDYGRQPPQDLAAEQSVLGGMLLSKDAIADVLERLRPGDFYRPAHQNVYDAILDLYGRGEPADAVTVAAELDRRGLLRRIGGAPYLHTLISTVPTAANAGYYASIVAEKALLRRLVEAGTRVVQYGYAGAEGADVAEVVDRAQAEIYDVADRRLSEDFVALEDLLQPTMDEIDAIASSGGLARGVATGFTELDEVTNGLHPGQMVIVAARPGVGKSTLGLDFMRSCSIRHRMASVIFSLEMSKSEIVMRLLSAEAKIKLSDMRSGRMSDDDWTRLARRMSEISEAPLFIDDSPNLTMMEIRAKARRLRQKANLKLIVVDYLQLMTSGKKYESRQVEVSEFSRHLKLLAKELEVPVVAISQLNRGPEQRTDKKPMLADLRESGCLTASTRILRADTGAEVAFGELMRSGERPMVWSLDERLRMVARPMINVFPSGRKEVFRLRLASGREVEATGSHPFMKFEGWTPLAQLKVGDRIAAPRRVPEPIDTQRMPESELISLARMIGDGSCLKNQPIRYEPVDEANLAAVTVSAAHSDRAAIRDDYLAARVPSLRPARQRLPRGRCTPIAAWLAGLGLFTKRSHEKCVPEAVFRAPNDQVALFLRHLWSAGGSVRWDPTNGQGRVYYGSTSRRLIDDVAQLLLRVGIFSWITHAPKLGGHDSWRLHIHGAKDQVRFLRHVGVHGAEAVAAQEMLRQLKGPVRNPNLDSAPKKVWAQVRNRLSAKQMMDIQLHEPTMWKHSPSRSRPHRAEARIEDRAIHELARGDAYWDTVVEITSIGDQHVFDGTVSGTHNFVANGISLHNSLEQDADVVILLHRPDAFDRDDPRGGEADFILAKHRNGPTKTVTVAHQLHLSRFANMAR

Protein RecA = target: T2, Protein RecA (Mycobacterium tuberculosis, UniProt P9WHJ3); experiment: Fluorescence Cell-Free Homogeneous Dose Retest to Identify Inhibitors of RecA-Intein Splicing Activity. [Related pubchem assays (depositor defined):AID2097, AID2223, AID489010, AID492950]; format: functional
T2 sequence (P9WHJ3 whole entry): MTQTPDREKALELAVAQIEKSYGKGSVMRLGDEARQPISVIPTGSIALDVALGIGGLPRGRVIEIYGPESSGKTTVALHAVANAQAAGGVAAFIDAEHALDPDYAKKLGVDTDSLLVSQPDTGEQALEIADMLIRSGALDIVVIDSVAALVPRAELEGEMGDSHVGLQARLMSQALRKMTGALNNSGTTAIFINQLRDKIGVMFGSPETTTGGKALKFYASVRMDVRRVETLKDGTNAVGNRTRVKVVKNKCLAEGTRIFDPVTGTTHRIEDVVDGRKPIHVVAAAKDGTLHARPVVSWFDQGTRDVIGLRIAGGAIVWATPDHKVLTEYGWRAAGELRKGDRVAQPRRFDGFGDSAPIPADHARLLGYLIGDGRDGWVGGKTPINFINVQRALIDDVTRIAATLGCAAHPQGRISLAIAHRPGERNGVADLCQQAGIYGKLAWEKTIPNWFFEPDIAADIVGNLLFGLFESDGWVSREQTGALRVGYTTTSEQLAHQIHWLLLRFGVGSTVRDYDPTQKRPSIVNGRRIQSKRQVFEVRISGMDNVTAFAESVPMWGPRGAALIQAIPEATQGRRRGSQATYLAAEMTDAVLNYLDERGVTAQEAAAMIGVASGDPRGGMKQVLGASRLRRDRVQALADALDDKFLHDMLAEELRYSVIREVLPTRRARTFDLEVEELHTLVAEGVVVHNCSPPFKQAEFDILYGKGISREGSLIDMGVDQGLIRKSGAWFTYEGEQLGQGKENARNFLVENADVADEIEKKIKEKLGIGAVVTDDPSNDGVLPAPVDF

BJ [2] = experiment: cytotoxicity toward BJ-TERT fibroblasts, dose response, cell-based, RAS-independent, luminescence (AID 1933); format: functional; settings: Homo sapiens
BJ [3] = experiment: cells; format: functional, cell-based; settings: Homo sapiens
BJ [4] = experiment: cytotoxicity toward BJ-TERT-LT-ST fibroblasts, dose response, cell-based, RAS-independent, luminescence (AID 1935); format: functional; settings: Homo sapiens;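 further: BJ fibroblasts immortalized with TERT plus LT and ST oncogenes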
[5] = cytotoxicity toward DRD oncogenic fibroblasts, dose response, cell-based, non-viral oncogenic, luminescence (AID 1934); format: functional; settings: Homo sapiens
[6] = HEp-2 cell cytotoxicity, dose response, cytotoxicity control for RSV inhibitor project, HTS (AID 2410); format: functional; settings: human respiratory syncytial virus
Cytochrome P450 2D6 = Cytochrome P450 2D6 (Homo sapiens, UniProt P10635);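 further: CYP2D6 member of a cytochrome P450 panel assay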
Cytochrome P450 1A2 = target: T3, Cytochrome P450 1A2 (Homo sapiens, UniProt P05177);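 further: PubChem cytochrome P450 panel assay, CYP1A2 panel member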
T3 sequence (P05177 whole entry): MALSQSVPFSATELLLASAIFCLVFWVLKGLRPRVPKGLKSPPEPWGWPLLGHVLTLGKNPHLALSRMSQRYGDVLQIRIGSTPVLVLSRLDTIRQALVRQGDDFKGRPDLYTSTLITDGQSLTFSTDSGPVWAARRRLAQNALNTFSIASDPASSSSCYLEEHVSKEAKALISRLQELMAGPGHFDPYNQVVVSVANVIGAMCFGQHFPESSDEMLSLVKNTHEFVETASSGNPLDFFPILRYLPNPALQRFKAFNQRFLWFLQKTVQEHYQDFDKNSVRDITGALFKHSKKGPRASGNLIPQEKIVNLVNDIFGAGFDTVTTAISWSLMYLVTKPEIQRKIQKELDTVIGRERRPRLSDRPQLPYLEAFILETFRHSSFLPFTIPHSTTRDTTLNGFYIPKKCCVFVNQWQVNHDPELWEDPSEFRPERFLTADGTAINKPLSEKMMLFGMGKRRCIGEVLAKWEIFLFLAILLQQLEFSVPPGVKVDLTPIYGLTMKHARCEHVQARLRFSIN

Cytochrome P450 3A4 = Cytochrome P450 3A4 (Homo sapiens, UniProt P08684);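 further: CYP3A4 tested as one member of a cytochrome P450 panel screen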
[7] = target: T4, Rac GTPase-activating protein 1 (Homo sapiens, UniProt Q9H0H5); experiment: MgcRacGAP GTPase-activating activity inhibitors, confirmation, biochemical, ADP Hunter fluorescence, primary and confirmatory (AID 624330); format: functional
T4 sequence (Q9H0H5 whole entry): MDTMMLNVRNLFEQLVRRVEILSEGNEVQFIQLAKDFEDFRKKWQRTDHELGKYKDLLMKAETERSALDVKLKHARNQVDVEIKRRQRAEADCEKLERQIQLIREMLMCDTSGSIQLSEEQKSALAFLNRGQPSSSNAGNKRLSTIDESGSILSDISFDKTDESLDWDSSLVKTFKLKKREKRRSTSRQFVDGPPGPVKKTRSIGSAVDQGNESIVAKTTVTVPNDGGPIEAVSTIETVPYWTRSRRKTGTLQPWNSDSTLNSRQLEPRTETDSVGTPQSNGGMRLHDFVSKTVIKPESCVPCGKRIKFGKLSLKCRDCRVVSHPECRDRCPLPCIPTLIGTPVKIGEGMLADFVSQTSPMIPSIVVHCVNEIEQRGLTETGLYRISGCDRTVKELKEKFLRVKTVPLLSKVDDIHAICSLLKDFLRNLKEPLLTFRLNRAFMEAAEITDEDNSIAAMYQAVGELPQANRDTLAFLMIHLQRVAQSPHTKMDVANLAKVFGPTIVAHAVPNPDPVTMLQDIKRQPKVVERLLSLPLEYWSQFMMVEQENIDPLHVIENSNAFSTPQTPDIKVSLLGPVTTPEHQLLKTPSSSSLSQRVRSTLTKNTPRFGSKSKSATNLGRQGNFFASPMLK

[8] = inhibitors of intracellular T. cruzi replication, confirmation, NIH3T3 host cells, beta-gal luminescence (AID 2044); format: functional, cell-based;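 further: intracellular parasites grown in NIH/3T3 mouse fibroblasts as host cells; luminescent beta-galactosidase reporter signal from transgenic T. cruzi replicating inside host cells; inhibitors lower the luminescence signal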
[9] = cytotoxicity toward NIH3T3 fibroblasts, dose response, counter-screen, cell-based, ATP luminescence, mouse fibroblasts (AID 2010); format: functional;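 further: cells exposed to compound for about 90 hours before reading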
[10] = tested on: Streptococcus sp. 'group A'; experiment: growth inhibition of control SK(-) GAS strain, dose response, counter-screen for streptokinase expression inhibitor project, luminescence, kanamycin, BacTiterGlo, confirmation (AID 1900); format: functional, organism-based
Streptokinase A = target: T5, Streptokinase A (Streptococcus pyogenes serotype M1, UniProt P10520); experiment: S. pyogenes streptokinase expression inhibitors, potency, dose response, plasminogen activation absorbance, OD405 (AID 1914); format: functional, Streptococcus pyogenes M1 GAS;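 further: secreted streptokinase activity via plasminogen activation per viability signal from cell pellet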
T5 sequence (P10520 whole entry): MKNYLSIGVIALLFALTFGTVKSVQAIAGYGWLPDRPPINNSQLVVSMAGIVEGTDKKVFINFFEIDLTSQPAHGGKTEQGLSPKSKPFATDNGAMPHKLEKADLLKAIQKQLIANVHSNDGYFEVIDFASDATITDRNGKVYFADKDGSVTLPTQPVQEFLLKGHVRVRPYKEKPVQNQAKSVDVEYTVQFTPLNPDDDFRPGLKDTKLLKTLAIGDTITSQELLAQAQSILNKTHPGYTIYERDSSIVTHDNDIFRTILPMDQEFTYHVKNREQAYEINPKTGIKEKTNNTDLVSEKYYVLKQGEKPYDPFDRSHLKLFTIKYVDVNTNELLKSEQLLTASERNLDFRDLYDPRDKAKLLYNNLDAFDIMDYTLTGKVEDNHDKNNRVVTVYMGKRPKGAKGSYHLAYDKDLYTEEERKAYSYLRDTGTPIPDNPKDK

Streptococcus = experiment: Group A Streptococcus viability loss, dose response, counter-screen for streptokinase expression inhibitor project, luminescence, BacTiterGlo (AID 1915); format: functional, organism-based;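 further: potency for reduction of bacterial viability or growth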

Chain of Cytochrome P450 3A4 (P08684 whole entry): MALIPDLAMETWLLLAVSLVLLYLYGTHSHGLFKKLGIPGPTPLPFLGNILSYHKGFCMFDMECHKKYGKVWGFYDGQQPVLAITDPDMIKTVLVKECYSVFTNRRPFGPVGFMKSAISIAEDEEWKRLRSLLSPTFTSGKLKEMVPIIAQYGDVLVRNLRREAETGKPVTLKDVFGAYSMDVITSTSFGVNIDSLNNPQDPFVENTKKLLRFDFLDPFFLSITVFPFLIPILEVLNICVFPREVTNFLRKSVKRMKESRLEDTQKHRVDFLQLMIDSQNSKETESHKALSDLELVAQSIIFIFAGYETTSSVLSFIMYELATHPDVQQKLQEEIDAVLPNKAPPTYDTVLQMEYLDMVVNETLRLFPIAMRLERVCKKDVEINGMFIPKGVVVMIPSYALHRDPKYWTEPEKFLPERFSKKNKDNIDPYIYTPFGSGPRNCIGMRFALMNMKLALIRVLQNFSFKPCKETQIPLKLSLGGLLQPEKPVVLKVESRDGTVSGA
Chain of Cytochrome P450 2D6 (P10635 whole entry): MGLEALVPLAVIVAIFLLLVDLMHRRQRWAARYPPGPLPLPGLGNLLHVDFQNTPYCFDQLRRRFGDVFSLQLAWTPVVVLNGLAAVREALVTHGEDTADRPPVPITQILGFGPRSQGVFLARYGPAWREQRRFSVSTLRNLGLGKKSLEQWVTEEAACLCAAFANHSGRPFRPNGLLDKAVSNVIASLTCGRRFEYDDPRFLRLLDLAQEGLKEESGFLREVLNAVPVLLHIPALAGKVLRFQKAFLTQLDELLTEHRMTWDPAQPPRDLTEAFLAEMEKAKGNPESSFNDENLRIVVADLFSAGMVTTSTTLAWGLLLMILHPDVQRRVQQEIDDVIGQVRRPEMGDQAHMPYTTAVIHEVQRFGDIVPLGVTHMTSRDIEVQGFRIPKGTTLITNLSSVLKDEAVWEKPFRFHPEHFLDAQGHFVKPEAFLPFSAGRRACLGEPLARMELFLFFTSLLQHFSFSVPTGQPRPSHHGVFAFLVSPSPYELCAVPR

| SMILES | AC50 [1] | EC50 (Protein RecA) | CC50 [6] | further results |
| --- | --- | --- | --- | --- |
| COc1ccc(CN2CCNC(=O)C2CC(=O)N(C)Cc2ccncn2)c(OC)c1 (stereo not given) | 89.1 µM (active) | 24.7 µM (active) |  |  |
| CCn1cnc2c([N+](=O)[O-])c(NS(=O)(=O)c3ccc(C)cc3)ccc21 |  |  |  | EC50 (BJ [2]): > 150 µM (not active); EC50 (BJ [3]): > 150 µM (not active); EC50 (BJ [4]): > 150 µM (inconclusive); EC50 [5]: > 150 µM (not active) |
| COc1cc(C2C(C#N)=C(N)Oc3[nH]nc(C)c32)cc2c1OCO2 (stereo not given) | 2.11 µM (active) | 1.38 µM (active) |  |  |
| COc1ccc(/C=C2/C(=O)N(c3ccccc3)N=C2C)c(OC)c1 | 3.87 µM (active) | 2.64 µM (active) |  |  |
| O=C(NC12CC3CC(CC(C3)C1)C2)c1ccc(COc2ccc(Cl)cc2[N+](=O)[O-])o1 |  |  | 32.4 µM (active) | AC50 (Cytochrome P450 2D6): 28.2 µM (inconclusive); AC50 (Cytochrome P450 1A2): 14.1 µM (inconclusive); AC50 (Cytochrome P450 3A4): 15.8 µM (inconclusive) |
| Cc1ccc(-n2nc3c(=O)n(CCCC(=O)NCc4ccccc4Cl)nc(C)c3c2C)cc1 |  |  | > 50 µM (active) |  |
| CCCCCN1N=C(C)CC1=O | 6.18 µM (active) | 2.79 µM (active) |  |  |
| CN(CC(=O)Nc1ccc(Cl)c(C(F)(F)F)c1)C(=O)c1cc(-c2ccncc2)nc2ccccc12 |  |  | 20 µM (active) |  |
| O=C(Oc1ccc(-c2nnco2)cc1)c1ccco1 | 17.6 µM (active) | 15.3 µM (active) |  |  |
| COc1ccc(/C=C2\SC(=S)N(CC(=O)OCC(=O)Nc3cc(Cl)cc(Cl)c3)C2=O)cc1 |  |  |  | EC50 (BJ [2]): > 150 µM (not active); EC50 (BJ [3]): > 150 µM (not active); EC50 (BJ [4]): > 150 µM (not active); EC50 [5]: > 150 µM (not active) |
| COc1ccc(-c2nc(-c3cc([N+](=O)[O-])ccc3C)c(-c3ccccc3)[nH]2)cc1O |  |  | 15.1 µM (active) |  |
| CCOC(=O)c1sc(Nc2ccc(Br)cc2)nc1C |  |  | 27.5 µM (active) |  |
| COc1cc(/C=C(\C#N)C(=O)c2c[nH]c3ccccc23)cc(OC)c1O | 1.26 µM (active) | 1.18 µM (active) |  | IC50 [7]: 43.6 µM (active) |
| CC(=O)NC(c1ccc(Cl)cc1)c1c(O)ccc2ccc(O)cc12 (stereo not given) | > 120 µM (inactive) | 4.61 µM (active) |  |  |
| Cc1cccc(C2c3[nH]c4ccccc4c3CCN2Cc2cccn2-c2ncccn2)c1 (stereo not given) |  |  | 20.4 µM (active) | EC50 [8]: 0.647 µM (active); EC50 [9]: 20.7 µM (active) |
| CCOC(=O)C1CCC2(CC1)C(C#N)=C(N)Oc1[nH]nc(C)c12 (stereo not given) | 53.1 µM (active) | > 380 µM (inactive) |  |  |
| O=C(CN1C(=O)S/C(=C\C=C\c2ccccc2)C1=O)Nc1ccccc1C(=O)O | 8.47 µM (active) | 10.8 µM (active) |  | EC50 [10]: 5.14 µM (active); EC50 (Streptokinase A): 4.37 µM (active); EC50 (Streptococcus): 14.9 µM (active) |
| COc1cc2c(C(=O)N3CCOCC3)c(CSc3ccccc3)n(C)c2cc1Br |  |  | 20.7 µM (active) |  |
| Cc1noc(O)c1N=Nc1ccc2[nH]c(O)nc2c1 |  |  | 22.4 µM (active) |  |
| CCc1ccc(NS(=O)(=O)c2ccc3ncc(C(=O)N4CCc5ccccc54)c(O)c3c2)cc1 |  |  | > 50 µM (active) |  |
| CO/C(O)=C1/C(C)=NC2=C(C(=O)CCC2)C1c1cn(Cc2ccc(Br)cc2)nc1-c1ccccc1 (stereo not given) |  |  | 17.4 µM (active) |  |
